Laboratory results published in patent publication US8815892B2, “P2X7R antagonists and their use” (Affectis Pharmaceuticals AG, priority 2008, dated 2014).

Assays:
[1] = system: LPA-induced neuropathic pain in C57/Bl6 mice; assay: Lysophosphatidic acid (LPA)-induced neuropathy, mechanical hyperalgesia (digital Randall-Selitto); format: in vivo, mouse; settings: 1 hour after dosing
Experimental: The therapeutic effects of the compounds of the present invention were assessed in the lysophosphatidic acid (LPA)-induced neuropathy in mice. This model is commonly used to evaluate the potential analgesic activity of compounds designed to treat neuropathic pain in humans (Inoue et al. (2004) Nat Med 10: 712-718; Inoue et al. (2008). Mol Pain 4(6) doi:10.1186/1744-8069-4-6). In this example, a representative compound of the invention, 4-chloro-N-(cycloheptylmethyl)-1-(2-hydroxyethyl)-1H-indole-3-carboxamide (Example 54), was tested.
Neuropathic pain was induced in male, C57/Bl6 mice (Harlan) by an intrathecal injection of 1 nmol LPA (prepared in saline; ENZO) in a 5 μL volume into the spinal cord. Pre-LPA injection, post-LPA injection and post-treatment values for mechanical hyperalgesia were evaluated using a digital Randall-Selitto device (dRS; IITC Life Sciences). Paw compression threshold was measured once at each time point for the left and right paws. […] The readings from the left and right paws were averaged at each time point. […]
Vehicle (0.5% carboxymethylcellulose (CMC)) or between 125-500 mg/kg of a compound of the present invention (dissolved in 0.5% CMC) were administered via oral gavage two days after LPA injection. […] If a significant main effect was detected, Dunnetts' post hoc test was used to compare treatment to vehicle treated animals. […]

EAE in SJL mice = assay: Relapsing-remitting experimental autoimmune encephalomyelitis (EAE), PLP139-151/CFA model of multiple sclerosis; format: in vivo, mouse; settings: SJL female mice
Experimental: The therapeutic effects of the compounds of the present invention were assessed in a mouse model of relapsing-remitting multiple sclerosis MS. The relapsing-remitting experimental autoimmune encephalomyelitis (EAE) which develops in SJL mice after immunization with the Proteolipid Protein PLP139-151 and Complete Freund's Adjuvant (CFA) is the mouse model which most closely resembles human remitting/relapsing MS (see Webb et al (2004) J Neuroimmunol 153:108-121). In this example, a representative compound of the invention, 4-chloro-N-(cycloheptylmethyl)-1-(2-hydroxyethyl)-1H-indole-3-carboxamide (Example 54), was tested.
EAE was induced in SJL female mice (Jackson Labs), using a PLP139-151/CFA Emulsion (Hooke Laboratories, Lawrence Mass.) according to the manufacturer's recommended protocol. Mice were injected subcutaneously at four sites (0.05 mL at each site) in the back with the emulsion. Two sites of injection were in the area of the upper back, approximately 1 cm caudal of the neck line. The other two sites were in the area of the lower back, approximately 2 cm cranial of the base of the tail. Individual animals were then examined daily for clinical signs of neurological deficits scored on a 0 to 5 scale as follows: 0, no abnormality; 0.5, stiff tail; 1, limp tail; 1.5, limp tail with inability to right; 2, paralysis of one limb; 2.5, paralysis of one limb and weakness of one other limb; 3, complete paralysis of both hind limbs; 4, moribund; 5, death. Daily scoring for signs of EAE started on Day 7 after immunization with the first symptoms observed between Days 11 and 15 after immunization. Treatment for each animal began on the second day that the animal developed EAE symptoms. […] The effect of treatment on development of EAE relapses was evaluated by comparing incidence and severity of relapses, and the end scores between the compound-treated groups and the vehicle group. Incidence of relapse were compared using two-tailed Fisher's exact test and the end scores between vehicle and treatment groups were calculated using Wilcoxon's non-parametric test. […]

Compound | mean paw compression thresholds compared to pre-treatment baseline ([1]; 125-500 mg/kg oral gavage two days after LPA injection, p<0.05) | treated animals that developed relapses (EAE in SJL mice; 125 to 500 mg/kg twice daily oral gavage from second day of EAE symptoms, vehicle 50.0%, p=0.0038) [%] | average EAE score on Day 40 (end of the study) (EAE in SJL mice; 125 to 500 mg/kg twice daily oral gavage, 0 to 5 scale, vehicle 1.34, p=0.0021) | day of relapse (the one mouse of the group that relapsed) (EAE in SJL mice; 125 to 500 mg/kg twice daily oral gavage, vehicle mean day of relapse 22, delay p=0.0039) [days] | mechanical hyperalgesia (paw compression thresholds) compared to pre-treatment baseline ([1]; 100 mg/kg intraperitoneal two days after LPA injection)
O=C(NCC1CCCCCC1)c1cn(CCO)c2cccc(Cl)c12 [Example 54, 4-chloro-N-(cycloheptylmethyl)-1-(2-hydroxyethyl)-1H-indole-3-carboxamide] | significantly increased mean paw compression thresholds | 6 | 0.50 | 40 | –
NCC1(CC(=O)O)CCCCC1 [gabapentin, reference compound] | – | – | – | – | slight decrease in mechanical hyperalgesia
